Patent US20230416225A1, “DIAMINOPYRIMIDINE CARBOXAMIDE INHIBITORS OF HPK1” (MERCK SHARP & DOHME LLC, priority 2020, published 2023)

Each molecule was assayed against T1, Human HPK1, catalytic domain (Homo sapiens, UniProt Q92918) (assay: HPK1-SLP76 TR-FRET assay). Conditions: 75 pM HPK1, 10 uM ATP, 10 nM SLP76, 30 min compound pre-incubation.
T1 construct: purchased Carna
T1 sequence (Q92918 1-346): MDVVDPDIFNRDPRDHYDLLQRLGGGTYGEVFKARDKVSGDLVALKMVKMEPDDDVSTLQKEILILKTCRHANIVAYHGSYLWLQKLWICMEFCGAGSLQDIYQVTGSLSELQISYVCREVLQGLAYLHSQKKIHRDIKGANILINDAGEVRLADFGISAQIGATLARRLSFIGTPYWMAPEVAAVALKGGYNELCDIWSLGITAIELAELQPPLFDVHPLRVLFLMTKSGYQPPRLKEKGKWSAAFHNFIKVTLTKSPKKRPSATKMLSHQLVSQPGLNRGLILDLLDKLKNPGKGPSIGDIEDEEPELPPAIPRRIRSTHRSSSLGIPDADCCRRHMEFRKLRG
Assay type: biochemical

How did the IC50 turn out when `COc1cc2c(cc1Nc1ncc(C(N)=O)c(Nc3ccccc3-c3nccs3)n1)CN(C)CC2` [Example 14-2, 2-[(6-methoxy-2-methyl-1,2,3,4-tetrahydroisoquinolin-7-yl)amino]-4-{[2-(1,3-thiazol-2-yl)phenyl]amino}pyrimidine-5-carboxamide] was run?
The IC50 was 0.26 nM.

For `COc1cc2c(cc1Nc1ncc(C(N)=O)c(Nc3ccccc3-c3ncco3)n1)CN(C)CC2` [Example 14-3, 2-[(6-methoxy-2-methyl-1,2,3,4-tetrahydroisoquinolin-7-yl)amino]-4-{[2-(1,3-oxazol-2-yl)phenyl]amino}pyrimidine-5-carboxamide], which IC50 is on record?
The IC50 was 0.64 nM.

How did the IC50 turn out when `COc1cc2c(cc1Nc1ncc(C(N)=O)c(Nc3cccc4c3CCN(C(C)=O)C4)n1)CN(C)CC2` [Example 15-1, 4-[(2-acetyl-1,2,3,4-tetrahydroisoquinolin-5-yl)amino]-2-[(6-methoxy-2-methyl-1,2,3,4-tetrahydroisoquinolin-7-yl)amino]pyrimidine-5-carboxamide] was run?
Its IC50 is 0.48 nM.

Which IC50 does the source give for `COc1cc2c(cc1Nc1ncc(C(N)=O)c(Nc3cccc4c3CCN(C)C4)n1)CN(C)CC2` [Example 16-1, 2-((6-methoxy-2-methyl-1,2,3,4-tetrahydroisoquinolin-7-yl)amino)-4-((2-methyl-1,2,3,4-tetrahydroisoquinolin-5-yl)amino)pyrimidine-5-carboxamide] here?
Its IC50 is 0.09 nM.

Which IC50 does the source give for `COc1cc2c(cc1Nc1ncc(C(=O)NN)c(Nc3ccccc3)n1)CN(C)CC2` [Example 18-1, 2-((6-Methoxy-2-methyl-1,2,3,4-tetrahydroisoquinolin-7-yl)amino)-4-(phenylamino)pyrimidine-5-carbohydrazide] here?
Its IC50 is 23.6 nM.

How did the IC50 turn out when `COc1cc2c3cc1Nc1ncc(C(N)=O)c(n1)Nc1c(F)cc(cc1F)CCCCCN(CC2)C3` [Example 19-1, 52,56-Difluoro-16-methoxy-11,12,13,14-tetrahydro-2,4-diaza-1(7,2)-isoquinolina-3(2,4)-pyrimidina-5(1,4)-benzenacyclodecaphane-35-carboxamide] was run?
The IC50 was 3.01 nM.

How did the IC50 turn out when `COc1cc2c(cc1Nc1ncc(C(N)=O)c(Nc3c(F)cccc3C(F)(F)F)n1)CN(C)CC21CC1` [Example 21-1, 4-((2-fluoro-6-(trifluoromethyl)phenyl)amino)-2-((6′-methoxy-2′-methyl-2′,3′-dihydro-1′H-spiro[cyclopropane-1,4′-isoquinolin]-7′-yl)amino)pyrimidine-5-carboxamide] was run?
The IC50 was 0.21 nM.

How did the IC50 turn out when `CCC1[C@@H](C(=O)Nc2ncc(C(N)=O)c(Nc3ccccc3Br)n2)[C@@H]1c1cnn(C)c1` (stereo partly drawn) [Example 22-2, 4-[(2-bromophenyl)amino]-2-{[(1R,3R)-2-ethyl-3-(1-methyl-1H-pyrazol-4-yl)cyclopropane-1-carbonyl]amino}pyrimidine-5-carboxamide] was run?
The IC50 was 468 nM.

For `CC(C)N1CCn2nc(Nc3ncc(C(N)=O)c(Nc4cccc5c4CCNC5)n3)cc2CC1=O` [Example 24-1, 2-((6-isopropyl-5-oxo-5,6,7,8-tetrahydro-4H-pyrazolo[1,5-d][1,4]diazepin-2-yl)amino)-4-((1,2,3,4-tetrahydroisoquinolin-5-yl)amino)pyrimidine-5-carboxamide], which IC50 is on record?
Its IC50 is 5.05 nM.

For `NC(=O)c1cnc(Nc2ccccc2)nc1Nc1cccc2c1CCNC2=O` [Example 25-1, 4-[(1-oxo-1,2,3,4-tetrahydroisoquinolin-5-yl)amino]-2-(phenylamino)pyrimidine-5-carboxamide], which IC50 is on record?
Its IC50 is 24.4 nM.

For `CC(C)(C#N)c1cccc(Nc2ncc(C(N)=O)c(Nc3cccc4c3CCNC4=O)n2)c1` [Example 25-3, 2-{[3-(2-cyanopropan-2-yl)phenyl]amino}-4-[(1-oxo-1,2,3,4-tetrahydroisoquinolin-5-yl)amino]pyrimidine-5-carboxamide], which IC50 is on record?
Its IC50 is 1.14 nM.

With `N#CC1(c2cccc(Nc3ncc(C(N)=O)c(Nc4cccc5c4CCNC5=O)n3)c2)CC1` [Example 25-4, 2-{[3-(1-cyanocyclopropyl)phenyl]amino}-4-[(1-oxo-1,2,3,4-tetrahydroisoquinolin-5-yl)amino]pyrimidine-5-carboxamide] as the molecule, how does the IC50 read?
Its IC50 is 2.78 nM.

For `NC(=O)c1cnc(Nc2ccc(F)cc2)nc1Nc1cccc2c1CCNC2=O` [Example 25-5, 2-[(4-fluorophenyl)amino]-4-[(1-oxo-1,2,3,4-tetrahydroisoquinolin-5-yl)amino]pyrimidine-5-carboxamide], which IC50 is on record?
The IC50 was 217 nM.

`NC(=O)c1cnc(Nc2ccc(F)c(Cl)c2)nc1Nc1cccc2c1CCNC2=O` [Example 25-6, 2-[(3-chloro-4-fluorophenyl)amino]-4-[(1-oxo-1,2,3,4-tetrahydroisoquinolin-5-yl)amino]pyrimidine-S-carboxamide] was tested. Which IC50 did it give?
Its IC50 is 580 nM.

Which IC50 does the source give for `NC(=O)c1cnc(Nc2ccc(C(F)(F)F)cc2)nc1Nc1cccc2c1CCNC2=O` [Example 25-7, 4-[(1-oxo-1,2,3,4-tetrahydroisoquinolin-5-yl)amino]-2-{[4-(trifluoromethyl)phenyl]amino}pyrimidine-5-carboxamide] here?
Its IC50 is 474 nM.

`C[C@@H](Nc1ncc(C(N)=O)c(Nc2cccc3c2CCNC3=O)n1)c1ccc(F)cc1` [Example 25-8, 2-{[(1R)-1-(4-fluorophenyl)ethyl]amino}-4-[(1-oxo-1,2,3,4-tetrahydroisoquinolin-5-yl)amino]pyrimidine-5-carboxamide] was tested. Which IC50 did it give?
The IC50 was 176 nM.

With `CCc1ccc(Nc2ncc(C(N)=O)c(Nc3cccc4c3CCNC4=O)n2)cc1` [Example 25-9, 2-[(4-ethylphenyl)amino]-4-[(1-oxo-1,2,3,4-tetrahydroisoquinolin-5-yl)amino]pyrimidine-5-carboxamide] as the molecule, how does the IC50 read?
Its IC50 is 12.1 nM.

For `NC(=O)c1cnc(Nc2cccc(F)c2)nc1Nc1cccc2c1CCNC2=O` [Example 25-10, 2-[(3-fluorophenyl)amino]-4-[(1-oxo-1,2,3,4-tetrahydroisoquinolin-5-yl)amino]pyrimidine-5-carboxamide], which IC50 is on record?
The IC50 was 1.22 nM.

Which IC50 does the source give for `Cc1cccc(Nc2ncc(C(N)=O)c(Nc3cccc4c3CCNC4=O)n2)c1C` [Example 25-11, 2-[(2,3-dimethylphenyl)amino]-4-[(1-oxo-1,2,3,4-tetrahydroisoquinolin-5-yl)amino]pyrimidine-5-carboxamide] here?
Its IC50 is 71 nM.

How did the IC50 turn out when `Cc1cc(Nc2ncc(C(N)=O)c(Nc3cccc4c3CCNC4=O)n2)ccc1C1CC1` [Example 25-12, 2-[(4-cyclopropyl-3-methylphenyl)amino]-4-[(1-oxo-1,2,3,4-tetrahydroisoquinolin-5-yl)amino]pyrimidine-5-carboxamide] was run?
Its IC50 is 0.57 nM.

With `NC(=O)c1cnc(Nc2ccc(C3CC3)cc2)nc1Nc1cccc2c1CCNC2=O` [Example 25-13, 2-[(4-cyclopropylphenyl)amino]-4-[(1-oxo-1,2,3,4-tetrahydroisoquinolin-5-yl)amino]pyrimidine-5-carboxamide] as the molecule, how does the IC50 read?
The IC50 was 14 nM.

Which IC50 does the source give for `NC(=O)c1cnc(Nc2cccc3ccccc23)nc1Nc1cccc2c1CCNC2=O` [Example 25-14, 2-[(naphthalen-1-yl)amino]-4-[(1-oxo-1,2,3,4-tetrahydroisoquinolin-5-yl)amino]pyrimidine-5-carboxamide] here?
Its IC50 is 136 nM.

How did the IC50 turn out when `CCc1ccccc1Nc1ncc(C(N)=O)c(Nc2cccc3c2CCNC3=O)n1` [Example 25-15, 2-[(2-ethylphenyl)amino]-4-[(1-oxo-1,2,3,4-tetrahydroisoquinolin-5-yl)amino]pyrimidine-5-carboxamide] was run?
The IC50 was 210 nM.

Which IC50 does the source give for `NC(=O)c1cnc(Nc2cccc(OC(F)F)c2)nc1Nc1cccc2c1CCNC2=O` [Example 25-16, 2-{[3-(difluoromethoxy)phenyl]amino}-4-[(1-oxo-1,2,3,4-tetrahydroisoquinolin-5-yl)amino]pyrimidine-5-carboxamide] here?
The IC50 was 14.5 nM.

With `NC(=O)c1cnc(Nc2ccc(F)cc2F)nc1Nc1cccc2c1CCNC2=O` [Example 25-17, 2-[(2,4-difluorophenyl)amino]-4-[(1-oxo-1,2,3,4-tetrahydroisoquinolin-5-yl)amino]pyrimidine-5-carboxamide] as the molecule, how does the IC50 read?
The IC50 was 333 nM.

With `NC(=O)c1cnc(Nc2cccc(C(F)(F)F)c2)nc1Nc1cccc2c1CCNC2=O` [Example 25-18, 4-[(1-oxo-1,2,3,4-tetrahydroisoquinolin-5-yl)amino]-2-{[3-(trifluoromethyl)phenyl]amino}pyrimidine-5-carboxamide] as the molecule, how does the IC50 read?
The IC50 was 20.1 nM.

Which IC50 does the source give for `Cc1cccc(Nc2ncc(C(N)=O)c(Nc3cccc4c3CCNC4=O)n2)c1` [Example 25-19, 2-[(3-methylphenyl)amino]-4-[(1-oxo-1,2,3,4-tetrahydroisoquinolin-5-yl)amino]pyrimidine-5-carboxamide] here?
The IC50 was 2.61 nM.

For `CC(C)(C)c1cccc(Nc2ncc(C(N)=O)c(Nc3cccc4c3CCNC4=O)n2)c1` [Example 25-20, 2-[(3-tert-butylphenyl)amino]-4-[(1-oxo-1,2,3,4-tetrahydroisoquinolin-5-yl)amino]pyrimidine-5-carboxamide], which IC50 is on record?
Its IC50 is 3.31 nM.

For `NC(=O)c1cnc(Nc2ccc(OC(F)F)c(Cl)c2)nc1Nc1cccc2c1CCNC2=O` [Example 25-21, 2-{[3-chloro-4-(difluoromethoxy)phenyl]amino}-4-[(1-oxo-1,2,3,4-tetrahydroisoquinolin-5-yl)amino]pyrimidine-5-carboxamide], which IC50 is on record?
The IC50 was 45 nM.

For `Cc1cc(C)cc(Nc2ncc(C(N)=O)c(Nc3cccc4c3CCNC4=O)n2)c1` [Example 25-22, 2-[(3,5-dimethylphenyl)amino]-4-[(1-oxo-1,2,3,4-tetrahydroisoquinolin-5-yl)amino]pyrimidine-5-carboxamide], which IC50 is on record?
The IC50 was 2.98 nM.

`NC(=O)c1cnc(NC2(c3ccccc3F)CC2)nc1Nc1cccc2c1CCNC2=O` [Example 25-23, 2-{[1-(2-fluorophenyl)cyclopropyl]amino}-4-[(1-oxo-1,2,3,4-tetrahydroisoquinolin-5-yl)amino]pyrimidine-5-carboxamide] was tested. Which IC50 did it give?
The IC50 was 346 nM.

Which IC50 does the source give for `NC(=O)c1cnc(NCc2c(Cl)cccc2Cl)nc1Nc1cccc2c1CCNC2=O` [Example 25-24, 2-{[(2,6-dichlorophenyl)methyl]amino}-4-[(1-oxo-1,2,3,4-tetrahydroisoquinolin-5-yl)amino]pyrimidine-5-carboxamide] here?
Its IC50 is 230 nM.
